Test results as given in ChEMBL document CHEMBL5104193, “Hypoxia-Activated Prodrugs with Dual COX-2/CA Inhibitory Effects on Attenuating Cardiac Inflammation under Hypoxia” (J Med Chem, 2022).
Calls of active or inactive are those of the source.

What was measured:
[1] = tested on: H9c2; assay: Anti-inflammatory activity in rat H9c2 cells assessed as downregulation of cytochrome C expression at 10 uM in presence of indomethacin by Western blot analysis; type: functional, cell-based
[2] = tested on: H9c2; assay: Reversal of ATP level in LPS/hypoxia induced rat H9c2 cells in presence of indomethacin by multimode plate reader analysis (reference value: 21.37 nmol/mg); type: functional
[3] = tested on: Rattus norvegicus; assay: Antiinflammatory activity against LPS/talc powder induced pericarditic Wistar rat assessed as reduction in torsion T wave inversion at 20 mg/kg, ip pretreated for 2 hrs followed by LPS/tal powder stimulation measured after 48 hrs in presence of indomethacin by ECG analysis; type: functional, organism-based; conditions: time 50.0 hrs
[4] = Toxicity in Wistar rat assessed as change in BUN level in presence of indomethacin; conditions: in vivo
[5] = tested on: H9c2; assay: Protection against LPS/hypoxia induced apoptosis in rat H9c2 cells assessed as reduction in necrotic cells at 10 umol/L incubated for 4 hrs under hypoxia condition in presence of Indomethacin by AnnexinV-FITC/propidium iodide staining based flow cytometry analysis (reference value: 31.02%); type: functional; parameters: scale not given: the % may be the effect or the level left; conditions: dose 10 µmol/L, at 10 µM
[6] = tested on: H9c2; assay: Anti-inflammatory activity in LPS/hypoxia induced rat H9c2 cells assessed as reduction of TNF-alpha protein expression at 10 uM in presence of indomethacin by Western blot analysis; type: functional, cell-based
[7] = tested on: H9c2; assay: Reversal of LPS/hypoxia induced mitochondrial membrane potential loss in rat H9c2 cells assessed as increase in JC-1 polymer morphology in presence of indomethacin by JC-1 dye based flow cytometry analysis; type: functional, cell-based; conditions: time 20.0 min
[8] = tested on: H9c2; assay: Protection against LPS/hypoxia induced apoptosis in rat H9c2 cells assessed as reduction in red fluorescence by confocal microscopy analysis; type: functional, cell-based
[9] = tested on: Rattus norvegicus; assay: Antiinflammatory activity in LPS/talc powder induced pericarditic Wistar rat assessed as increase in cTNI level in serum at 20 mg/kg, ip pretreated for 2 hrs followed by LPS/tal powder stimulation measured after 48 hrs in presence of indomethacin (reference value: 0.167+/-0.025 ng/ml); type: functional; conditions: time 50 hrs
[10] = tested on: Rattus norvegicus; assay: Antiinflammatory activity against LPS/talc powder induced pericarditic Wistar rat assessed as elimination of pericardial effusion at 20 mg/kg, ip pretreated for 2 hrs followed by LPS/tal powder stimulation measured after 48 hrs in presence of indomethacin; type: functional, organism-based; conditions: time 50.0 hrs
[11] = tested on: Rattus norvegicus; assay: Antiinflammatory activity against LPS/talc powder induced pericarditic Wistar rat assessed as reduction in heart swelling at 20 mg/kg, ip pretreated for 2 hrs followed by LPS/tal powder stimulation measured after 48 hrs in presence of indomethacin; type: functional, organism-based; conditions: time 50.0 hrs
[12] = Toxicity in Wistar rat assessed as change in CRE level in presence of indomethacin; conditions: in vivo
[13] = tested on: H9c2; assay: Protection against LPS/hypoxia induced cell injury in rat H9c2 cells assessed as recovery of cell viability in presence of indomethacin and Na2WO4 by CCK-8 assay; type: functional, cell-based
[14] = tested on: H9c2; assay: Inhibition of intracellular ROS level in LPS/hypoxia induced rat H9c2 cells in presence of indomethacin by DCFH-DA probe based fluorescence confocal microscopy analysis; type: functional, cell-based
[15] = tested on: H9c2; assay: Protection against LPS/hypoxia induced apoptosis in rat H9c2 cells assessed as reduction in red fluorescence in presence of indomethacin by confocal microscopy analysis; type: functional, cell-based
[16] = tested on: NTR; assay: Stability of the compound assessed as NTR (unknown origin) mediated hydrolysis by measuring half life by UV spectrophotometry; type: ADME; conditions: human, NTR enzyme
[17] = tested on: H9c2; assay: Reversal of LPS/hypoxia induced mitochondrial membrane potential loss in rat H9c2 cells in presence of indomethacin by JC-1 dye based flow cytometry analysis; type: functional, cell-based
[18] = tested on: Rattus norvegicus; assay: Antiinflammatory activity in LPS/talc powder induced pericarditic Wistar rat assessed as increase in CK-MB level in serum at 20 mg/kg, ip pretreated for 2 hrs followed by LPS/tal powder stimulation measured after 48 hrs in presence of indomethacin (reference value: 4140+/-256.23 U/L); type: functional; conditions: time 50 hrs
[19] = tested on: H9c2; assay: Anti-inflammatory activity in rat H9c2 cells assessed as inhibition of endogenous IL-6 protein expression in presence of indomethacin by DAPI staining based immunofluorescence analysis; type: functional, cell-based
[20] = tested on: H9c2; assay: Protection against LPS/hypoxia induced cell injury in rat H9c2 cells assessed as recovery of cell viability in presence of indomethacin by CCK-8 assay (reference value: 69.0%); type: functional
[21] = tested on: H9c2; assay: Inhibition of intracellular ROS level in LPS/hypoxia induced rat H9c2 cells in presence of indomethacin and Na2WO4 by DCFH-DA probe based fluorescence confocal microscopy analysis; type: functional, cell-based
[22] = tested on: H9c2; assay: Anti-inflammatory activity in LPS/hypoxia induced cell injury in rat H9c2 cells assessed as reduction of IL-1beta protein expression at 10 uM in presence of indomethacin by Western blot analysis; type: functional, cell-based
[23] = tested on: H9c2; assay: Reversal of ATP level in LPS/hypoxia induced rat H9c2 cells in presence of indomethacin and Na2WO4 by multimode plate reader analysis; type: functional, cell-based
[24] = tested on: H9c2; assay: Anti-inflammatory activity in LPS/hypoxia induced rat H9c2 cells assessed as increase in VEGF expression at 10 uM in presence of indomethacin by Western blot analysis; type: functional, cell-based
[25] = Toxicity in Wistar rat assessed as change in ALT level in presence of indomethacin; conditions: in vivo
[26] = tested on: H9c2; assay: Protection against LPS/hypoxia induced apoptosis in rat H9c2 cells assessed as reduction in necrotic cells at 10 umol/L incubated for 4 hrs under hypoxia condition by AnnexinV-FITC/propidium iodide staining based flow cytometry analysis (reference value: 31.02%); type: functional; parameters: scale not given: the % may be the effect or the level left; conditions: dose 10 µmol/L, at 10 µM
[27] = tested on: H9c2; assay: Anti-inflammatory activity in LPS/hypoxia induced rat H9c2 cells assessed as reduction of IL-6 protein expression at 10 uM in presence of indomethacin by Western blot analysis; type: functional, cell-based
[28] = tested on: H9c2; assay: Anti-inflammatory activity in rat H9c2 cells assessed as downregulation of cytochrome C expression at 10 uM by Western blot analysis; type: functional, cell-based
[29] = tested on: Rattus norvegicus; assay: Antiinflammatory activity against LPS/talc powder induced pericarditic Wistar rat assessed as reduction in U wave flattening at 20 mg/kg, ip pretreated for 2 hrs followed by LPS/tal powder stimulation measured after 48 hrs in presence of indomethacin by ECG analysis; type: functional, organism-based; conditions: time 50.0 hrs
[30] = tested on: H9c2; assay: Protection against LPS/hypoxia induced apoptosis in rat H9c2 cells assessed as reduction in green fluorescence in presence of indomethacin by confocal microscopy analysis; type: functional, cell-based

NS(=O)(=O)c1nnc(NC(=O)CCCCc2cn(CC(=O)O)nn2)s1
Toxic: Activity [4] | Activity [12] | Activity [25]
91.8%: Activity [20]
9.61%: Activity [5]
23.78%: Activity [26]
0.121 ng/mL: Activity [9]
active: Activity [1] | Activity [3] | Activity [6] | Activity [7] | Activity [8] | Activity [10] | Activity [11] | Activity [13] | inhibition [14] | Activity [15] | Activity [17] | Activity [19] | inhibition [21] | Activity [22] | Activity [23] | Activity [24] | Activity [27] | Activity [28] | Activity [29] | Activity [30]
2620 U/L: Activity [18]
8.3 min: half-life [16]
47.52 nmol/mg: Activity [2]
